For 3 compounds, Km results are on record in patent publication US5266463A, “Highly sensitive assay method for L-carnitine and composition for practicing same” (Asahi Kasei Kogyo Kabushiki Kaisha, priority 1990, dated 1993).

Where “and” joins values, the source holds several entries; their conditions need not be identical. Equal values may be shown once. Read-outs that look alike come from different tables or passages of the source.

The assay has as its system L-carnitine dehydrogenase (EC 1.1.1.108) produced by Alcaligenes sp. No. 981 FERM BP-2570. Description: Km-value determination of L-carnitine dehydrogenase (diaphorase/NBT coupled reaction). In kind it is biochemical. The source says: The L-carnitine dehydrogenase used in the composition for assay of L-carnitine according to the present invention can be an enzyme having reactivity on a substrate of L-carnitine together with a suitable coenzyme NAD or thio-NAD. Its suitability can be confirmed by using the said coenzyme and substrate. L-carnitine dehydrogenase produced by Alcaligenes sp. No. 981 (product of Toyo Jozo Co.) has a relative activity of approx. 15% when coenzyme thio-NAD is used, as compared to use of NAD.
Km-value for NAD is measured in various concentrations of NAD^* in a reaction mixture of:
100 mM Tris-HCl buffer (pH 9.0)
5U diaphorase (Toyo Jozo Co.)
0.025% NBT (Wako Pure Chem. Co.)
1% polyoxyethylene (20) sorbitan monooleate (80) (Wako Pure Chem. Co.) and
In the reaction mixture, 50 mM L-carnitine is replaced by 1 mM NAD , and the concentration of L-carnitine is varied to measure the Km-value of L-carnitine.
The results are as shown above.

As to `NC(=O)c1ccc[n+]([C@@H]2O[C@H](COP(=O)([O-])OP(=O)(O)OC[C@H]3O[C@@H](n4cnc5c(N)ncnc54)[C@H](O)[C@@H]3O)[C@@H](O)[C@H]2O)c1` [NAD, nicotinamide adenine dinucleotide], the Km (NAD concentration varied, 50 mM L-carnitine, 100 mM Tris-HCl buffer (pH 9.0), diaphorase, NBT, read-out: Km-value (NAD)) was 140 µM and 141 µM.

Take `NC(=S)c1ccc[n+]([C@@H]2O[C@H](COP(=O)([O-])OP(=O)(O)OC[C@H]3O[C@@H](n4cnc5c(N)ncnc54)[C@H](O)[C@@H]3O)[C@@H](O)[C@H]2O)c1` [thio-NAD, thionicotinamide adenine dinucleotide]: for the setting “coenzyme thio-NAD, under the same conditions as NAD, read-out: Km-value (thio-NAD)”, the Km amounted to 400 µM.

`C[N+](C)(C)C[C@H](O)CC(=O)[O-]` [L-carnitine]: under “L-carnitine concentration varied, 1 mM NAD, 100 mM Tris-HCl buffer (pH 9.0), diaphorase, NBT, read-out: Km-value (L-carnitine)”, the Km worked out at 9300 µM.
